Measurements: patent publication US20220340665A1, “INHIBITOR AGAINST EXPRESSION OF IMMUNE CHECKPOINT MOLECULE” (RENASCIENCE INC., priority 2019, published 2022)

Molecular target: human PAI-1 (Homo sapiens, UniProt P05121)
Experiment: PAI-1 inhibitory activity, t-PA with Spectrozyme t-PA chromogenic substrate (Reference Experimental Example 2)
Assay type: biochemical
Design: purchased Molecular Innovations, Inc. (USA)
Method: Subsequently, human-derived tissue plasminogen activator (t-PA) (manufactured by American Diagnostica, Inc. (USA); the same applies hereinafter) adjusted to 0.05 pmol/μL was added thereto, and the mixture was further incubated at 37° C. for 60 minutes. Then, 0.25 mM of Spectrozyme t-PA synthetic substrate (manufactured by American Diagnostica, Inc. (USA); the same applies hereinafter), which is a chromogenic substrate, was added. […]
Free p-nitroaniline removed from the chromogenic substrate (Spectrozyme t-PA) by t-PA action was measured using a spectrophotometer at an absorbance of 405 nm at 20-minute intervals, for 120 minutes.

[1] = Tables 5 to 7, first value column, head prints no concentration
[2] = Tables 5 to 7, second value column, head prints no concentration
[3] = compound 10 μm (head), system without compound after 120 minutes = 100%
[4] = compound 25 μm (head), system without compound after 120 minutes = 100%

Chain of human PAI-1 (P05121 24-402): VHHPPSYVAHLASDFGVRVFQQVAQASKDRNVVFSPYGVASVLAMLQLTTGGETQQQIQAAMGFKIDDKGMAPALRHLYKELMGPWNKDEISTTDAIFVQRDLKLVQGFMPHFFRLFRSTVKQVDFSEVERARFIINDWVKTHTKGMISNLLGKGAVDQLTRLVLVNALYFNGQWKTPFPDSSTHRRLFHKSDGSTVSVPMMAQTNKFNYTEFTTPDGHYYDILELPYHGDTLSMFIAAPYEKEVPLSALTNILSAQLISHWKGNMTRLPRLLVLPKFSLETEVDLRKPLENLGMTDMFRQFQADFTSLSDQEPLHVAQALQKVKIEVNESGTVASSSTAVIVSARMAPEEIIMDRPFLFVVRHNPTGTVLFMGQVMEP

| Compound | PAI-1 activity % [3] [%] | PAI-1 activity % [4] [%] | PAI-1 activity % [1] [%] | PAI-1 activity % [2] [%] |
| --- | --- | --- | --- | --- |
| O=C(COc1ccc(C2CCCCC2)cc1)Nc1ccc(Cl)cc1C(=O)O [Existing compound 3, 5-chloro-2-(((4-cyclohexylphenoxy)aceytl)amino)benzoic acid, reference compound] | – | – | 0.3 | 36.3 |
| O=C(Nc1ccc(Cl)cc1C(=O)O)c1ccc(C2=CCOCC2)cc1 [Example 32, 5-chloro-2-(((4'-(3,6-dihydro-2H-pyran-4-yl)phenyl)carbonyl)amino)benzoic acid] | 1.7 | 94.4 | – | – |
| O=C(/C=C(/Cl)C1CCCCC1)Nc1ccc(Cl)cc1C(=O)O [Example 91, 5-chloro-2-(((2E)-3-chloro-3-cyclohexlprop-2-encyl)amino)benzoic acid] | – | – | 16.7 | 96.9 |
| O=C(Nc1ccc(Cl)cc1C(=O)O)c1cccc(-c2cccc3ccccc23)c1 [Example 58, 5-chloro-2-(((3-(naphthalen-1-yl)phenyl)carbonyl)amino)benzoic acid] | 0.0 | 0.0 | – | – |
| O=C(Nc1ccc(Cl)cc1C(=O)O)c1ccc(C2=CCOCC2)cc1 [Example 34, 5-chloro-2-(((4-(3,6-dihyrdo-2H-pyran-4-yl)phenyl)carbonyl)amino)benzoic acid] | 45.1 | 97.1 | – | – |
| O=C(Nc1ccc(Cl)cc1C(=O)[O-])c1cccc(OCc2ccc3ccccc3n2)c1.[Na+] [Example 99, 5-chloro-2-(((3-(quinolin-2-ylmethoxy)phenyl)carbonyl)amino)sodium benzoate] | – | – | 0.3 | 87.8 |
| O=C(Nc1ccc(CCC2CCCCC2)cc1C(=O)O)c1ccc(C2CCCCC2)cc1 [Example 93, 5-(2-cyclohexylethyl)2-(((4-cyclohexylphenyl)carbonyl)amino)beznoic acid] | – | – | 0.0 | 0.0 |
| O=C(Nc1ccc(Cl)cc1C(=O)[O-])c1cccc(-c2ccncc2)c1.[Na+] [Example 8, 5-chloro-2-(((3-(pyridin-4-yl)phenyl)carbonyl)amino)sodium benzoate] | 28.5 | 100.3 | – | – |
| O=C(O)c1cc(Cl)ccc1NC(=O)C1CCCN(C(=O)c2cccc(-c3ccccc3)c2)C1 (centres unmarked) [Example 31, 2-(((1-(biphenyl-3-ylcarbonyl)pipendin-3-yl)carbonyl)amino)-5-chlorobenzoic acid] | 20.2 | 88.0 | – | – |
| O=C(/C=C/c1cccc(-c2cccnc2)c1)Nc1ccc(Cl)cc1C(=O)[O-].[Na+] [Example 103, 5-chloro-2-(((2E)-3-[3-(pyridin-3-yl)phenyl]prop-2-enoyl)amino)sodium benzoate] | – | – | 34.2 | 92.3 |
| O=C(COc1cccc(C23CC4CC(CC(C4)C2)C3)c1)Nc1ccc(Cl)cc1C(=O)O [Example 30] | 1.3 | 19.3 | – | – |
| O=C(Nc1ccc(Cl)cc1C(=O)[O-])c1ccc(OCc2ccc3ccccc3n2)cc1.[Na+] [Example 100, 5-chloro-2-(((4-(quinolin-2-ylmethoxy)phenyl)carbonyl)amino)sodium benzoate] | – | – | 0.7 | 92.1 |
| Cl.O=C(O)c1cc(Cl)ccc1NC(=O)N1CCN(C(c2ccccc2)c2ccccc2)CC1 [Example 75, 5-chloro-2-(((4-(diphenylmethyl)piperacin-1-yl)carbonyl)amino)benzoic acid hydrochloride] | – | – | 4.7 | 86.4 |
| O=C(Nc1ccc(Cl)cc1C(=O)O)c1cccc(C2=CCCCC2)c1 [Example 79, 5-chloro-2-(((3-(cyclohex-1-en-1yl-)phenyl)carbonyl)amino)benzoic acid] | – | – | 1.6 | 44.5 |
| CC(C)(Oc1cccc(-c2ccoc2)c1)C(=O)Nc1ccc(Cl)cc1C(=O)O [Example 44, 5-chloro-2-((2-(3-(furan-3-yl)phenoxy)-2-methylpropenoyl)amino)benzoic acid] | 20.4 | 97.6 | – | – |
| O=C(Nc1ccc(C2=CCCCC2)cc1C(=O)O)c1ccc(C2CCCCC2)cc1 [Example 81, 5-(cyclohex-1-en-1-yl)-2-(((4-cylcohexylphenyl)carbonyl)amino)benzoic acid] | – | – | 0.0 | 1.0 |
| 5-chloro-2-(((4-(methylcyclohexyl)phenyl)carbonyl)amino)benzoic acid [Example 98] | – | – | 0.1 | 41.5 |
| O=C(CN1CCN(C(c2ccccc2)c2ccccc2)CC1)Nc1ccc(Cl)cc1C(=O)O [Example 77, 5-chloro-2-(((4-(diphenylmethyl)piperazin-1-yl)acetyl)amino)benzoic acid] | – | – | – | 69.6 |
| O=C(/C=C/c1cccc(-c2cccc3cccnc23)c1)Nc1ccc(Cl)cc1C(=O)[O-].[Na+] [Example 101, 5-chloro-2-(((2E)-3-(3-(quinolin-8-yl)phenyl)prop-2-enoyl)amino)sodium benzoate] | – | – | 0.2 | 24.7 |
| Cc1ccc(C23CC4CC(CC(C(=O)Nc5ccc(Cl)cc5C(=O)O)(C4)C2)C3)cc1 [Example 86] | – | – | 1.4 | 63.5 |
| O=C(Nc1ccc(Cl)cc1C(=O)[O-])c1cccc(-c2cncc3ccccc23)c1.[Na+] [Example 64, 5-chloro-2-(((3-(isoquinolin-4-yl)phenyl)carbonyl)amino)sodium benzoate] | 0.7 | 74.3 | – | – |

Further lines, with some results ahead:

| PAI-1 activity % [3] [%] | PAI-1 activity % [4] [%] | Compound | PAI-1 activity % [1] [%] | PAI-1 activity % [2] [%] |
| --- | --- | --- | --- | --- |
| 1.8 | 97.3 | Cn1c(C(=O)Nc2ccc(Cl)cc2C(=O)O)cc2cc(Br)ccc21 [Example 23] | – | – |
| 0.6 | 90.4 | O=C(Nc1ccc(Cl)cc1C(=O)[O-])c1ccc(-c2cccc3cccnc23)cc1.[Na+] [Example 67, 5-chloro-2-(((4-(quinolin-8-yl)phenyl)carbonyl)amino)sodium benzoate] | – | – |
| 21.9 | 77.4 | CC(C)(C)c1cccc(OCC(=O)Nc2ccc(Cl)cc2C(=O)O)c1 [Example 16, 2-(((3-tert-butylphenoxy)acetyl)amino)-5-chlorobenzioc acid] | – | – |
| 0.3 | 21.3 | O=C(Nc1ccc(Cl)cc1C(=O)[O-])c1cccc(-c2cnc3ccccc3c2)c1.[Na+] [Example 63, 5-chloro-2-(((3-(quinolin-3-yl)phenyl)carbonyl)amino)sodium benzoate] | – | – |
| 0.3 | 10.0 | O=C(COc1ccc(C23CC4CC(CC(C4)C2)C3)cc1)Nc1ccc(Cl)cc1C(=O)O [Example 21] | – | – |
| 0.4 | 69.9 | O=C(COc1ccccc1-c1ccccc1)Nc1ccc(-c2ccoc2)cc1C(=O)O [Example 46, 2-(((biphenyl-2-yloxy)acetyl)amino)-5-(furan-3-yl)benzoic acid] | – | – |
| 16.1 | 81.4 | CC(C)(C)c1cccc(OCC(=O)Nc2ccc(Cl)cc2C(=O)O)c1 [Example 18, 2-(((3-tert-butylphenoxy)acetyl)amino)-5-chlorobenzoic acid] | – | – |
| – | 96.8 | O=C(O)c1cc(Cl)ccc1NC(=O)C1(c2cccc(-c3ccoc3)c2)CC1 [Example 35, 5-chloro-2-(((1-(3-(furan-3-yl)phenyl)cyclopropyl)carbonyl)amino)benzoic acid] | – | – |
